One assay has as its target hNav1.7 (Homo sapiens, UniProt Q15858). The assay is described as follows: cell-based. The assay is classed as cell-based. As to conditions: Table 12; PatchXpress, tonic block; read-out: PX hNav1.7 Tonic IC50.
In another assay the target is hNav1.4 (Homo sapiens, UniProt P35499). Put plainly: cell-based. The assay is classed as cell-based. As to conditions: for IC50: PatchXpress, tonic block, read-out: PX hNav1.4 Tonic IC50; for Nav1.4/Nav1.7: ratio of PX tonic IC50 values.

The structures appear in SMILES notation.

hNav1.4, sequence (P35499 whole entry): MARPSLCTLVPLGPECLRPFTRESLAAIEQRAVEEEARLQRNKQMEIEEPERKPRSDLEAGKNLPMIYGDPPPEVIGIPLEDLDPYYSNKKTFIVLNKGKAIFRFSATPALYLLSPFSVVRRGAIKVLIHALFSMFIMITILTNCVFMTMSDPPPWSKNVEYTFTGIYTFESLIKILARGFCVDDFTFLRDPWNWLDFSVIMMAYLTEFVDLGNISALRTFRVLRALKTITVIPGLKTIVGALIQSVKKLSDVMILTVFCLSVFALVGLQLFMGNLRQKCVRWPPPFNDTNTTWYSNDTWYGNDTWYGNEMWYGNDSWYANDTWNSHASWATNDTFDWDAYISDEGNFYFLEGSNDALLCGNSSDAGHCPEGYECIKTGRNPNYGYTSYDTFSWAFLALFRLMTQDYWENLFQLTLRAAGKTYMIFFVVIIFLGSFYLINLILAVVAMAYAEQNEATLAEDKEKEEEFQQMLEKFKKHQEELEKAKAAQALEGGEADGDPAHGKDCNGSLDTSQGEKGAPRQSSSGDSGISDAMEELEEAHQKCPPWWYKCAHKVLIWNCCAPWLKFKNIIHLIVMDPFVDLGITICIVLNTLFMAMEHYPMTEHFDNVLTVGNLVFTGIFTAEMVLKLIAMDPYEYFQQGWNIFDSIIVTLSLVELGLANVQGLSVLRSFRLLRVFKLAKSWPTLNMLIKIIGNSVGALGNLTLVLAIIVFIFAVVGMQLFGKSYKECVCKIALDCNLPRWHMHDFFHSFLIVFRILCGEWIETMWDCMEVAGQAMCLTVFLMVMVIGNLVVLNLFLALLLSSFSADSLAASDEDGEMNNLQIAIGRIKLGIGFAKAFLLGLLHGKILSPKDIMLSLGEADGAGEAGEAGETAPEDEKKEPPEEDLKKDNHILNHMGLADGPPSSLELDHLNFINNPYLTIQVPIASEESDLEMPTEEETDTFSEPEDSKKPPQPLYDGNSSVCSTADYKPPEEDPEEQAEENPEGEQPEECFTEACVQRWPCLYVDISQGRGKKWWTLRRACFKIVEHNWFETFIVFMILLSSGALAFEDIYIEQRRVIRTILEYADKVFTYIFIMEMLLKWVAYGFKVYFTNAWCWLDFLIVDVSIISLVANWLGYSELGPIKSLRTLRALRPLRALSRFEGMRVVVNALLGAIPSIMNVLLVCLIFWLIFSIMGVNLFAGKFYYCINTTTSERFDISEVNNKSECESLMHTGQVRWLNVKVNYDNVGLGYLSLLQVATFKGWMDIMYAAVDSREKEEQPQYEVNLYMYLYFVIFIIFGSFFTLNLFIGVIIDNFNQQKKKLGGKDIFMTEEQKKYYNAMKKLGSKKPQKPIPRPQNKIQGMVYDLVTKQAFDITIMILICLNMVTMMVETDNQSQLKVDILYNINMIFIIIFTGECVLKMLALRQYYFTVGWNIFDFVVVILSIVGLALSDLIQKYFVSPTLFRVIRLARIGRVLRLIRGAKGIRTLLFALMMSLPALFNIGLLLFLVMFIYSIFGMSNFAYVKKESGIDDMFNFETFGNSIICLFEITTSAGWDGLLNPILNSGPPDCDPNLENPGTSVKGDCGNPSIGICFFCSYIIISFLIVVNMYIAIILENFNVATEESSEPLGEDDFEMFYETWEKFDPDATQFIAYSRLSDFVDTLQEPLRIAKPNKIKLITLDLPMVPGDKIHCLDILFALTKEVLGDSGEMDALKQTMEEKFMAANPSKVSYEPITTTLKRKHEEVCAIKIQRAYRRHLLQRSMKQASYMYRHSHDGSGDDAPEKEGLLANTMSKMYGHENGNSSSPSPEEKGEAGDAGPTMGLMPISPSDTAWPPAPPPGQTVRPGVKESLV
hNav1.7, sequence (Q15858 whole entry): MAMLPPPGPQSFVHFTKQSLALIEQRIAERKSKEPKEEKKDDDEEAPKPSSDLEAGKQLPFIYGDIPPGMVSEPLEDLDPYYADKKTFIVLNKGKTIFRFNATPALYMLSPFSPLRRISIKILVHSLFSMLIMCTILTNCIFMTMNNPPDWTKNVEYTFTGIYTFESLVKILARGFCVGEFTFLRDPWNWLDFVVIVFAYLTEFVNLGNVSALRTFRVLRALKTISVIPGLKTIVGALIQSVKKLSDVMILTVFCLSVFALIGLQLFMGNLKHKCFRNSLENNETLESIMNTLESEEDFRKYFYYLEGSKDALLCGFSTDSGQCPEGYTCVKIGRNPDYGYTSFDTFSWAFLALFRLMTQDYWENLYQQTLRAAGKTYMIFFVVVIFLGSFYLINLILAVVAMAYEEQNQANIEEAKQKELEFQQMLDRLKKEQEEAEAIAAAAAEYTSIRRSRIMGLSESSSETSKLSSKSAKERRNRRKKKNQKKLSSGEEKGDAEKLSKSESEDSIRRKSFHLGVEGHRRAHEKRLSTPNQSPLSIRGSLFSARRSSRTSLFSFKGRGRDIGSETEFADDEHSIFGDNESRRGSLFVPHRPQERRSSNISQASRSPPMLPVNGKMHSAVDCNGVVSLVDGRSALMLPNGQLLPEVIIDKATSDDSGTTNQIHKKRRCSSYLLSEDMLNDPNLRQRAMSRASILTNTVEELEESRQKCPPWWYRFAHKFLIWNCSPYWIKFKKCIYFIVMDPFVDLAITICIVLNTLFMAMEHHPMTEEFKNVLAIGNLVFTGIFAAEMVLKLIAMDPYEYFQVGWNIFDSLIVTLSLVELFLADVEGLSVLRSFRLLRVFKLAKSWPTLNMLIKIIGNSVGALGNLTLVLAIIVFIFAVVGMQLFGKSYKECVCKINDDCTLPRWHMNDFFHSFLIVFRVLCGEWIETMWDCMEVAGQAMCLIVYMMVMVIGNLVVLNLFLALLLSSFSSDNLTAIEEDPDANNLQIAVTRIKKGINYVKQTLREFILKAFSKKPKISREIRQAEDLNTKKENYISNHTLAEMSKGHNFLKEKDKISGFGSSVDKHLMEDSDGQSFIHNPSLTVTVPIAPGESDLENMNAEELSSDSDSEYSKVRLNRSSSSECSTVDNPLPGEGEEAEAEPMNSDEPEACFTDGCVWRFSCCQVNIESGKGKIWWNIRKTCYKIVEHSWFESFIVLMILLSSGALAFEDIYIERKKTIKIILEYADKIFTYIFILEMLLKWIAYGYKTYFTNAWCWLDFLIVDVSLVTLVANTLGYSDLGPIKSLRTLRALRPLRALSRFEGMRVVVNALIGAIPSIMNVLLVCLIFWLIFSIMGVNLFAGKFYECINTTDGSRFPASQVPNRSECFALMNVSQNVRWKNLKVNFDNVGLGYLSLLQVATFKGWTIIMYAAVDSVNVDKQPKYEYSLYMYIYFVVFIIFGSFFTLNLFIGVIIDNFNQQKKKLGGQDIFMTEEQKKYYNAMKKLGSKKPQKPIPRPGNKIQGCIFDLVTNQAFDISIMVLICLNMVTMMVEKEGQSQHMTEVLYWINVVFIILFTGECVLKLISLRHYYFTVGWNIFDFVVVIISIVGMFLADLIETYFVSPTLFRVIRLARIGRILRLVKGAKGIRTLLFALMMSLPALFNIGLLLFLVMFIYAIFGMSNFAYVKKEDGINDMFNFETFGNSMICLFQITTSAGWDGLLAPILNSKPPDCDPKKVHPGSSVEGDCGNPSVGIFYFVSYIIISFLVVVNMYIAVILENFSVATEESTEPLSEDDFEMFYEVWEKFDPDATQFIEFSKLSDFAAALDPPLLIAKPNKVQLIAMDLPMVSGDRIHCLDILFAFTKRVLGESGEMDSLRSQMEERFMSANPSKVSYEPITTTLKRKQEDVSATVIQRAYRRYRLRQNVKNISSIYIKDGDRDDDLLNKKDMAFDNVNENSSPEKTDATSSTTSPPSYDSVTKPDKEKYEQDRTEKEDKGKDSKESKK

For the compound `C#CC[C@H](N)C(=O)N[C@@H](Cc1ccc(O)cc1)C(=O)N[C@H]1CSSC[C@@H]2NC(=O)[C@@H]3CSSC[C@@H](C(=O)N[C@@H](CCCNC(=N)N)C(=O)N[C@@H](CCCCN)C(=O)N[C@H](C(=O)N[C@H](C(N)=O)[C@@H](C)CC)[C@@H](C)CC)NC(=O)[C@H](Cc4c[nH]c5ccccc45)NC(=O)[C@H](CC(C)C)NC(=O)[C@H](CCCCN)NC(=O)[C@H](CSSC[C@H](NC(=O)[C@H]([C@@H](C)O)NC(=O)[C@H](Cc4c[nH]c5ccccc45)NC(=O)[C@H](CCCC)NC(=O)[C@H](Cc4c[nH]c5ccccc45)NC(=O)[C@H](CCCCN)NC(=O)[C@H](CCC(N)=O)NC1=O)C(=O)N[C@@H](CC(=O)O)C(=O)N[C@@H](CO)C(=O)N[C@@H](CCC(=O)O)C(=O)N[C@@H](CCCNC(=N)N)C(=O)N[C@@H](C)C(=O)N3)NC(=O)[C@H](CCCNC(=N)N)NC(=O)[C@H](CC(C)C)NC(=O)CNC(=O)[C@H](CCC(=O)O)NC2=O` [compound 730], the IC50 at hNav1.7 was 1.19 nM. On hNav1.4 (Table 12), the IC50 was determined as 37.2 nM and the Nav1.4/Nav1.7 is reported as 31.
In the same order, the values of `C#CC[C@H](N)C(=O)N[C@@H](Cc1ccc(O)cc1)C(=O)N[C@H]1CSSC[C@@H]2NC(=O)[C@@H]3CSSC[C@@H](C(=O)N[C@@H](CCCNC(=N)N)C(=O)N[C@@H](CCCCN)C(=O)N[C@@H](CCC(=O)O)C(=O)N[C@H](C(N)=O)[C@@H](C)CC)NC(=O)[C@H](Cc4c[nH]c5ccccc45)NC(=O)[C@H](CC(C)C)NC(=O)[C@H](CCCCN)NC(=O)[C@H](CSSC[C@H](NC(=O)[C@H]([C@@H](C)O)NC(=O)[C@H](Cc4ccccc4)NC(=O)[C@H](CCCC)NC(=O)[C@H](Cc4c[nH]c5ccccc45)NC(=O)[C@H](CCCCN)NC(=O)[C@H](CCC(N)=O)NC1=O)C(=O)N[C@@H](CC(=O)O)C(=O)N[C@@H](CO)C(=O)N[C@@H](CCCCN)C(=O)N[C@@H](CCCNC(=N)N)C(=O)N[C@@H](C)C(=O)N3)NC(=O)[C@H](CCCNC(=N)N)NC(=O)[C@H](CC(C)C)NC(=O)CNC(=O)[C@H](CCC(=O)O)NC2=O` [compound 848] are 12.6 nM, 1010 nM and 80.
The matching figures for `C#CC[C@H](N)C(=O)N[C@@H](Cc1ccc(O)cc1)C(=O)N[C@H]1CSSC[C@@H]2NC(=O)[C@@H]3CSSC[C@@H](C(=O)N[C@@H](CCCNC(=N)N)C(=O)N[C@@H](CCCCN)C(=O)N[C@@H](CCC(=O)O)C(=O)N[C@@H](Cc4c[nH]c5ccccc45)C(N)=O)NC(=O)[C@H](Cc4c[nH]c5ccccc45)NC(=O)[C@H](CC(C)C)NC(=O)[C@H](CCCCN)NC(=O)[C@H](CSSC[C@H](NC(=O)[C@H]([C@@H](C)O)NC(=O)[C@H](Cc4c[nH]c5ccccc45)NC(=O)[C@H](CCCC)NC(=O)[C@H](Cc4c[nH]c5ccccc45)NC(=O)[C@H](CCCCN)NC(=O)[C@H](CCC(N)=O)NC1=O)C(=O)N[C@@H](CC(=O)O)C(=O)N[C@@H](CO)C(=O)N[C@@H](CCCCN)C(=O)N[C@@H](CCCNC(=N)N)C(=O)N[C@@H](C)C(=O)N3)NC(=O)[C@H](CCCNC(=N)N)NC(=O)[C@H](CC(C)C)NC(=O)CNC(=O)[C@H](CCC(=O)O)NC2=O` [compound 450]: 0.782 nM, 36.7 nM and 47.
With `C#CC[C@@H]1NC(=O)[C@H](CO)NC(=O)[C@H](CC(=O)O)NC(=O)[C@@H]2CSSC[C@@H]3NC(=O)[C@H](CCCNC(=N)N)NC(=O)[C@H](CC(C)C)NC(=O)CNC(=O)[C@H](CCC(=O)O)NC(=O)[C@H](CSSC[C@H](NC(=O)[C@H](Cc4ccc(O)cc4)NC(=O)[C@@H](N)CC#N)C(=O)N[C@@H](CCC(N)=O)C(=O)N[C@@H](CCCCN)C(=O)N[C@@H](Cc4c[nH]c5ccccc45)C(=O)N[C@@H](CCCC)C(=O)N[C@@H](Cc4c[nH]c5ccccc45)C(=O)N[C@@H]([C@@H](C)O)C(=O)N2)NC(=O)[C@H](CSSC[C@@H](C(=O)N[C@@H](CCCNC(=N)N)C(=O)N[C@@H](CCCCN)C(=O)N[C@@H](CCC(=O)O)C(=O)N[C@H](C(N)=O)[C@@H](C)CC)NC(=O)[C@H](Cc2c[nH]c4ccccc24)NC(=O)[C@H](CC(C)C)NC(=O)[C@H](CCCCN)NC3=O)NC(=O)[C@H](C)NC(=O)[C@H](CCCNC(=N)N)NC1=O` [compound 521], the IC50 at hNav1.7 is 1.48 nM; on hNav1.4 (Table 12), 92.1 nM. Further, the Nav1.4/Nav1.7 on hNav1.4 (Table 12) is 62.
`C#CC[C@H](N)C(=O)N[C@@H](Cc1ccc(O)cc1)C(=O)N[C@H]1CSSC[C@@H]2NC(=O)[C@@H]3CSSC[C@@H](C(=O)N[C@@H](CCCNC(=N)N)C(=O)N[C@@H](CCCCN)C(=O)N[C@@H](CC(C)C)C(=O)N[C@H](C(N)=O)[C@@H](C)CC)NC(=O)[C@H](Cc4c[nH]c5ccccc45)NC(=O)[C@H](CC(C)C)NC(=O)[C@H](CCCCN)NC(=O)[C@H](CSSC[C@H](NC(=O)[C@H]([C@@H](C)O)NC(=O)[C@H](Cc4c[nH]c5ccccc45)NC(=O)[C@H](CCCC)NC(=O)[C@H](Cc4c[nH]c5ccccc45)NC(=O)[C@H](CCCCN)NC(=O)[C@H](CCC(N)=O)NC1=O)C(=O)N[C@@H](CC(=O)O)C(=O)N[C@@H](CO)C(=O)N[C@@H](CCCCN)C(=O)N[C@@H](CCCNC(=N)N)C(=O)N[C@@H](C)C(=O)N3)NC(=O)[C@H](CCCNC(=N)N)NC(=O)[C@H](CC(C)C)NC(=O)CNC(=O)[C@H](CCC(=O)O)NC2=O` [compound 655]: the IC50 amounted to 2.91 nM at hNav1.7 and 25.9 nM at hNav1.4 (Table 12). Moreover, on hNav1.4 (Table 12), the Nav1.4/Nav1.7 was 9.
In the same order, the values of `C#CC[C@H](N)C(=O)N[C@H]1CSSC[C@@H]2NC(=O)[C@@H]3CSSC[C@@H](C(=O)N[C@@H](CCCNC(=N)N)C(=O)N[C@@H](CCCCN)C(=O)N[C@@H](CCC(=O)O)C(=O)N[C@H](C(N)=O)[C@@H](C)CC)NC(=O)[C@H](Cc4c[nH]c5ccccc45)NC(=O)[C@H](CC(C)C)NC(=O)[C@H](CCCCN)NC(=O)[C@H](CSSC[C@H](NC(=O)[C@H]([C@@H](C)O)NC(=O)[C@H](Cc4c[nH]c5ccccc45)NC(=O)[C@H](CCCC)NC(=O)[C@H](Cc4c[nH]c5ccccc45)NC(=O)[C@H](CCCCN)NC(=O)[C@H](CCC(N)=O)NC1=O)C(=O)N[C@@H](CC(=O)O)C(=O)N[C@@H](CO)C(=O)N[C@@H](CCCCN)C(=O)N[C@@H](CCCNC(=N)N)C(=O)N[C@@H](C)C(=O)N3)NC(=O)[C@H](C(C)C)NC(=O)[C@H](CC(C)C)NC(=O)CNC(=O)[C@H](CCC(=O)O)NC2=O` [compound 1688] are 3.99 nM, 1120 nM and 280.
`CCCC[C@@H]1NC(=O)[C@H](Cc2c[nH]c3ccccc23)NC(=O)[C@H](CCCCN)NC(=O)[C@H](CCC(N)=O)NC(=O)[C@@H](NC(=O)[C@H](Cc2ccc(O)cc2)NC(=O)[C@@H](N)Cc2cn(CCOCCOCCOCCOCCOCCOCCOCCOCCOCCOCCOCCOCCOCCOCCOCCOCCOCCOCCOCCOCCOCCOCCOCCNC(=O)c3cc(CN)cc(C(=O)NCCOCCOCCOCCOCCOCCOCCOCCOCCOCCOCCOCCOCCOCCOCCOCCOCCOCCOCCOCCOCCOCCOCCOCCn4cc(C[C@H](N)C(=O)N[C@@H](Cc5ccc(O)cc5)C(=O)N[C@H]5CSSC[C@@H]6NC(=O)[C@@H]7CSSC[C@@H](C(=O)N[C@@H](CCCNC(=N)N)C(=O)N[C@@H](CCCCN)C(=O)N[C@@H](CCC(=O)O)C(=O)N[C@H](C(N)=O)[C@@H](C)CC)NC(=O)[C@H](Cc8c[nH]c9ccccc89)NC(=O)[C@H](CC(C)C)NC(=O)[C@H](CCCCN)NC(=O)[C@H](CSSC[C@H](NC(=O)[C@H]([C@@H](C)O)NC(=O)[C@H](Cc8c[nH]c9ccccc89)NC(=O)[C@H](CCCC)NC(=O)[C@H](Cc8c[nH]c9ccccc89)NC(=O)[C@H](CCCCN)NC(=O)[C@H](CCC(N)=O)NC5=O)C(=O)N[C@@H](CC(=O)O)C(=O)N[C@@H](CO)C(=O)N[C@@H](CCCCN)C(=O)N[C@@H](CCCNC(=N)N)C(=O)N[C@@H](C)C(=O)N7)NC(=O)[C@H](CCCNC(=N)N)NC(=O)[C@H](CC(C)C)NC(=O)CNC(=O)[C@H](CCC(=O)O)NC6=O)nn4)c3)nn2)CSSC[C@@H]2NC(=O)[C@@H]3CSSC[C@@H](C(=O)N[C@@H](CCCNC(=N)N)C(=O)N[C@@H](CCCCN)C(=O)N[C@@H](CCC(=O)O)C(=O)N[C@H](C(N)=O)[C@@H](C)CC)NC(=O)[C@H](Cc4c[nH]c5ccccc45)NC(=O)[C@H](CC(C)C)NC(=O)[C@H](CCCCN)NC(=O)[C@H](CSSC[C@H](NC(=O)[C@H]([C@@H](C)O)NC(=O)[C@H](Cc4c[nH]c5ccccc45)NC1=O)C(=O)N[C@@H](CC(=O)O)C(=O)N[C@@H](CO)C(=O)N[C@@H](CCCCN)C(=O)N[C@@H](CCCNC(=N)N)C(=O)N[C@@H](C)C(=O)N3)NC(=O)[C@H](CCCNC(=N)N)NC(=O)[C@H](CC(C)C)NC(=O)CNC(=O)[C@H](CCC(=O)O)NC2=O` [Homodimeric Conjugate No. 7]: the Nav1.4/Nav1.7 at hNav1.4 (Table 13) was determined as 94.
On the same count and under the same terms, the same measure for `CCCC[C@@H]1NC(=O)[C@H](Cc2c[nH]c3ccccc23)NC(=O)[C@H](CCCCN)NC(=O)[C@H](CCC(N)=O)NC(=O)[C@@H](NC(=O)[C@@H](N)Cc2cn(CCCOCCOCCOCCOCCOCCOCCOCCOCCOCCOCCN)nn2)CSSC[C@@H]2NC(=O)[C@@H]3CSSC[C@@H](C(=O)N[C@@H](CCCNC(=N)N)C(=O)N[C@@H](CCCCN)C(=O)N[C@H](C(=O)N[C@H](C(N)=O)[C@@H](C)CC)[C@@H](C)CC)NC(=O)[C@H](Cc4c[nH]c5ccccc45)NC(=O)[C@H](CC(C)C)NC(=O)[C@H](CCCCN)NC(=O)[C@H](CSSC[C@H](NC(=O)[C@H]([C@@H](C)O)NC(=O)[C@H](Cc4c[nH]c5ccccc45)NC1=O)C(=O)N[C@@H](CC(=O)O)C(=O)N[C@@H](CO)C(=O)N[C@@H](CCCCN)C(=O)N[C@@H](CCCNC(=N)N)C(=O)N[C@@H](C)C(=O)N3)NC(=O)[C@H](CCC(=O)O)NC(=O)[C@H](CC(C)C)NC(=O)CNC(=O)[C@H](CCC(=O)O)NC2=O` [compound 407]: 85.

The values are drawn from patent US10344060B2 (priority 2013, dated 2019).
